Entries after “also recorded” stand apart in the source; their conditions may differ. Like-named read-outs stand apart in the source and are kept apart here.
How the values were obtained:
DENV-2 viral replicon [1] = test: microbe, parasite or virus in culture; conditions: Dengue virus, DENV2, BHK, 72 h
[2] = system: DENV replicon cells (BHK); test: Cell viability assay (MTS) in DENV replicon cells; conditions: for CC50: DENV replicon BHK cells, MTS, 72 h
DENV-2 viral replicon [3] = conditions: for TTI, tissue culture therapeutic index (CC50/EC50): DENV replicon BHK cells
DENV replicon = assay type: cell-based, Dengue virus (DENV); conditions: for antiviral activity of nucleobase alone: 0.6 μM nucleobase, without 6-MMPR; for antiviral (anti-replicon) activity when supplemented with 6-MMPR: nucleobase supplemented with 0.01 μM 6-MMPR
DENV 2 = test: Potentiation in replication-competent DENV assay using Huh-7 cells (plaque assay, MacSynergy II); conditions: for synergy/potentiation with 6-MMPR for reduction in DENV replication: Huh7 cells, 0.1 μM 6-MMPR, infectious virus titer (FIG. 9); for potentiation/synergy with 6-MMPR of anti-DENV activity: Huh-7 cells, matrix of 6-MMPR and T-1105, infectious virus titer (FIG. 6)
Procedure: Huh7 cells were plated in each well of a 24 well plate (1×10^5/well). Twenty-four hours later, cells were inoculated with DENV 2 or ZIKV at a multiplicity of infection (MOI) of 0.05. Two hours post-inoculation, inoculum was retired and fresh medium containing treatment was added. Columns 1 to 6 were treated with increasing concentrations of 6-MMPR (0, 0.025, 0.05, 0.1, 0.2 and 0.4 μM). Rows A to D were treated with 0, 25, 50 and 100 μM of T-1105. Supernatants were collected after 72 hours post-infection and infectious virions were analyzed by plaque assay as extent of infectious virus production. For FIG. 5, Huh7 cells were inoculated with DENV or ZIKV and treated with different concentrations of T-1105 (0, 3, 9, 27, 51 or 243 μM), T-1106 (0, 6.7, 20, 60, 180 or 540 μM) and T-705 (same concentrations as T-1106) in combination with 0.1 μM AM28 or DMSO. After 72 hours post infection supernatants were collected and analyzed for viral yield by plaque assay.

HCoV-OC43 = test: Potentiation against HCoV-OC43 in Huh7 cells; assay type: cell-based, human betacoronavirus OC43; conditions: HCoV-OC43, combination with 6-MMPR, MacSynergy; listed as favipiravir
Procedure: HCoV-OC43. Huh7 cells were 12,500 Huh7 cells were seeded in a 96 well plate. Next day, the cells were inoculated with OC43 virus at a MOI (multiplicity of infection) of 0.5 for two hours. Next, the inoculum was removed and cells were treated with different combinations of 6MMPr and T-705 or remdesivir 1 μM (RDV) as positive control. Three wells per treatment were used. Cells were incubated for 5 days. Infected and treated cells were analyzed for cell viability by MTS and absorbance was measured at 490 nm.

[4] = Safety of the combination in DENV mouse model; assay type: in vivo; conditions: health of the mice / body weight
Procedure: The mice were treated with Vehicle, the combination T-1105 (3a)+6-MMPR, 1105 only, and PBS. Viral genomes were detected and quantitated by RT-qPCR at 2 or 4 days post infection. […] These studies help predict a safe dose and timing of administration of the combination of favipiravir (T705) and 6-MMPR to treat RNA virus infections, such as SARS-CoV-2.

IAV = test: Protection of Huh7 cells from IAV-induced cytopathic effects (MTS); assay type: cell-based, influenza A virus
ZIKV = test: Potentiation in replication-competent ZIKV titer reduction assay using Huh-7 cells; conditions: 0.1 μM 6-MMPR, infectious virus titer
Procedure: DENV and ZIKV. Huh7 cells were plated in each well of a 24 well plate (1×10^5/well). Twenty-four hours later, cells were inoculated with DENV 2 or ZIKV at a multiplicity of infection (MOI) of 0.05. Two hours post-inoculation, inoculum was retired and fresh medium containing treatment was added. Columns 1 to 6 were treated with increasing concentrations of 6-MMPR (0, 0.025, 0.05, 0.1, 0.2 and 0.4 μM). Rows A to D were treated with 0, 25, 50 and 100 μM of T-1105. Supernatants were collected after 72 hours post-infection and infectious virions were analyzed by plaque assay as extent of infectious virus production.

[5] = Cell viability assay (MTS) in DENV replicon cells; conditions: hamster
DENV = DENV titer reduction assay in Huh-7 cells, dose-response; assay type: cell-based; conditions: Dengue virus
[6] = combination with 6-MMPR (AM28), MacSynergy II

SMILES: NC(=O)c1ncn([C@@H]2O[C@H](CO)[C@@H](O)[C@H]2O)c1O [Compound 2b, 1-((2R,3R,4S,5R)-3,4-dihydroxy-5-(hydroxymethyl)tetrahydrofuran-2-yl)-5-hydroxy-1H-imidazole-4-carboxamide, reference compound]
- EC50 (DENV-2 viral replicon [1]): 15 ± 7.8 µM
- CC50 [2]: 33 ± 12 µM
- TTI, tissue culture therapeutic index (CC50/EC50) (DENV-2 viral replicon [3]): 2.2

SMILES: COc1c(C)c2c(c(O)c1C/C=C(C)/C=C(\C)C(=O)O)C(=O)OC2 [Compound 6, (2E,4E)-6-(4-hydroxy-6-methoxy-7-methyl-3-oxo-1,3-dihydroisobenzofuran-5-yl)-2,4-dimethylhexa-2,4-dienoic acid, reference compound]
- EC50 (DENV-2 viral replicon [1]): 0.3 ± 0.03 µM
- CC50 [2]: 1.4 ± 0.4 µM
- TTI, tissue culture therapeutic index (CC50/EC50) (DENV-2 viral replicon [3]): 4.7

SMILES: Nc1nc(N)c2[nH]cnc2n1 [Compound 4a, 9H-purine-2,6-diamine]
- CC50 [2]: 13 ± 2.1 µM

SMILES: NC(=O)c1nc[nH]c1O [Compound 2a, 5-hydroxy-1H-imidazole-4-carboxamide]
- EC50 (DENV-2 viral replicon [1]): 2.4 ± 0.1 µM
- antiviral activity of nucleobase alone (DENV replicon): no antiviral activity
- antiviral (anti-replicon) activity when supplemented with 6-MMPR (DENV replicon): an increase in antiviral activity was observed
- CC50 [2]: 23 ± 4.2 µM
- TTI, tissue culture therapeutic index (CC50/EC50) (DENV-2 viral replicon [3]): 9.6

SMILES: NC(=O)c1nc(F)cnc1O [Compound 5a, 6-fluoro-3-hydroxypyrazine-2-carboxamide, reference compound]
- synergy/potentiation with 6-MMPR for reduction in DENV replication (DENV 2; listed as T-705): synergistic effect
- synergy/potentiation with 6-MMPR for reduction in DENV replication (DENV 2; listed as favipiravir): synergistic antiviral effect
- synergy with 6-MMPR in inhibiting production of infectious coronavirus particles (HCoV-OC43): synergistic antiviral effect; also recorded: synergistically increases; also recorded: clear synergistic effect
- EC50 (DENV-2 viral replicon [1]): 110 ± 30 µM
- safety of the combination with 6-MMPR [4]: safe
- synergy with 6-MMPR against IAV (IAV): synergistic antiviral effect; also recorded: clear synergy peak
- protection of cells from IAV-induced cytopathic effects (CPE) (IAV; Huh7 cells, in combination with 6MMPR, listed as favipiravir): can protect cells; also recorded: protection of human cells from IAV-induced cell death
- synergy with 6-MMPR for reduction in DENV replicon replication (DENV replicon): synergistic effect
- synergy/potentiation with 6-MMPR for reduction in ZIKV replication (ZIKV): showed synergy
- synergy/potentiation with 6-MMPR for reduction in ZIKV replication (ZIKV; listed as T-705): synergistic effect
- synergy/potentiation with 6-MMPR for reduction in ZIKV replication (ZIKV; listed as favipiravir): synergistic antiviral effect
- CC50 at 72 h [5]: > 665 µM
- CC50 [2]: > 1000 µM

SMILES: NC(=O)c1nc[nH]n1 [Compound 1a, 1H-1,2,4-triazole-3-carboxamide]
- EC50 (DENV-2 viral replicon [1]): 4.9 ± 1.6 µM
- antiviral activity of nucleobase alone (DENV replicon): no antiviral activity
- antiviral (anti-replicon) activity when supplemented with 6-MMPR (DENV replicon): an increase in antiviral activity was observed
- CC50 at 72 h [5]: > 665 µM
- CC50 [2]: > 1000 µM
- cytotoxicity ([2]; at 1000 μM): did not show cytotoxicity
- TTI, tissue culture therapeutic index (CC50/EC50) (DENV-2 viral replicon [3]): 204

SMILES: NC(=O)c1ncn([C@@H]2O[C@H](CO)[C@@H](O)[C@H]2O)n1 [Compound 1b, 1-((2R,3R,4S,5R)-3,4-dihydroxy-5-(hydroxymethyl)tetrahydrofuran-2-yl)-1H-1,2,4-triazole-3-carboxamide, reference compound]
- EC50 (DENV-2 viral replicon [1]): 1.3 ± 0.1 µM

SMILES: CSc1ncnc2c1ncn2[C@@H]1O[C@H](CO)[C@@H](O)[C@H]1O [Compound 6-MMPR, (2R,3S,4R,5R)-2-(hydroxymethyl)-5-(6-(methylthio)-9H-purin-9-yl)tetrahydrofuran-3,4-diol]
- antiviral activity of 6-MMPR alone (DENV replicon; 0.01 μM, alone): lack of antiviral activity
- potentiation of nucleobase anti-replicon activity (DENV replicon; 6-MMPR 0.0025 and 0.005 μM): did not potentiate nucleobase anti-replicon activity
- anti-replicon activity of their own (DENV replicon; 6-MMPR 0.0025 and 0.005 μM, alone): nor did they have anti-replicon activity of their own

SMILES: NC(=O)c1nccn([C@@H]2O[C@H](CO)[C@@H](O)[C@H]2O)c1=O [Compound 3b, 4-((2R,3R,4S,5R)-3,4-dihydroxy-5-(hydroxymethyl)tetrahydrofurran-2-yl)-3-oxo-3,4-dihydropyrazine-2-carboxamide]
- synergy/potentiation with 6-MMPR for reduction in DENV replication (DENV 2): almost entirely an additive result
- synergy/potentiation with 6-MMPR for reduction in DENV replication (DENV 2; listed as T-1106): does not produce a synergistic effect
- EC50 (DENV): 60 ± 22 µM
- EC50 (DENV-2 viral replicon [1]): 113 ± 11 µM
- synergy with 6-MMPR for reduction in DENV replicon replication (DENV replicon; [6]): did not result in significant synergy
- synergy with 6-MMPR for reduction in DENV replicon replication (DENV replicon; combination with 6-MMPR (AM28), MacSynergy II, listed as T-1106): synergistic effect
- synergy/potentiation with 6-MMPR for reduction in ZIKV replication (ZIKV): did not potentiate
- synergy/potentiation with 6-MMPR for reduction in ZIKV replication (ZIKV; listed as T-1106): does not produce a synergistic effect
- CC50 [2]: > 1000 µM
- TTI, tissue culture therapeutic index (CC50/EC50) (DENV-2 viral replicon [3]): 8.8

SMILES: NC(=O)c1nccnc1O [Compound 3a, 3-hydroxypyrazine-2-carboxamide]
- synergy/potentiation with 6-MMPR for reduction in DENV replication (DENV 2): synergistic effect
- potentiation/synergy with 6-MMPR of anti-DENV activity (DENV 2): strongly potentiates
- potentiation/synergy with 6-MMPR of anti-DENV activity (DENV 2; listed as T-1105): synergistic effect
- EC50 (DENV): 20 ± 11 µM
- EC50 (DENV-2 viral replicon [1]): 21 ± 0.7 µM
- synergy with 6-MMPR for reduction in DENV replicon replication (DENV replicon; [6]): Stronger synergy
- synergy with 6-MMPR for reduction in DENV replicon replication (DENV replicon; combination with 6-MMPR (AM28), MacSynergy II, listed as T-1105): synergistic effect
- synergy/potentiation with 6-MMPR for reduction in ZIKV replication (ZIKV): showed synergy
- synergy/potentiation with 6-MMPR for reduction in ZIKV replication (ZIKV; listed as T-1105): synergistic effect
- cellular toxicity (Huh-7 cells): absence of cellular toxicity
- CC50 at 72 h [5]: > 665 µM
- CC50 [2]: > 665 µM
- times more active than nucleobase 5a (favipiravir) (DENV-2 viral replicon [3]; DENV replicon): 5
- TTI, tissue culture therapeutic index (CC50/EC50) (DENV-2 viral replicon [3]): 32
